Data reported in US20250214947A1, “3,4-DIHYDROQUINOXALINE-2-CARBOXIMIDE DERIVATIVE COMPOUND AND PHARMACEUTICAL COMPOSITION COMPRISING SAME FOR PREVENTING OR TREATING CANCER DISEASE” (Cureverse Incorporated, priority 2022, published 2025).

Columns and labels:
HDAC8 [1] = target: T1, HDAC8 (Homo sapiens, UniProt Q9BY41); test: HDAC8 inhibitory activity analysis (in vitro), RFU analysis, HDAC Fluorogenic assay kit; assay type: biochemical; conditions: 10 μM; compared with TSA or SAHA
T1 construct: purchased BPS bioscience
T1 sequence (Q9BY41 1-377): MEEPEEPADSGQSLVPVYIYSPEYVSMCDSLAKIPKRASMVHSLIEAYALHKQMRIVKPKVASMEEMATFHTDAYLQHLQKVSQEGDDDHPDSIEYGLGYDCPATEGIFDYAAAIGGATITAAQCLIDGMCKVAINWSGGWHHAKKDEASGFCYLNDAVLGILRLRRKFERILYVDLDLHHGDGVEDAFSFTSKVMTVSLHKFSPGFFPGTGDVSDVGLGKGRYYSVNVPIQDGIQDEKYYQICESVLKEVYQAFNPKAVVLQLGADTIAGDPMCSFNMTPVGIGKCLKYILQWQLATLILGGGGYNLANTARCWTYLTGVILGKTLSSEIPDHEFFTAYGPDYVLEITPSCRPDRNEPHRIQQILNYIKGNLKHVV
Method: The compound of the Example was diluted to 1 mM (1% DMSO concentration) using DMSO to obtain a final concentration of 10 μM, and prepared by diluting 1/10 with assay buffer. In a 96-well black round-bottom plate, 5 μL of the diluted compound of the Example, 5 μL of the diluted HDAC substrate 2A, 5 μL of BSA (1 mg/mL), 5 µL of the HDAC8 enzyme diluted to an appropriate concentration, and 30 μL of assay buffer were added, and the enzyme reaction was performed at 37° C. for 30 minutes. […] Afterwards, 50 μL of 2×HDAC developer was added to each well. After reacting for 15 minutes at room temperature, the fluorescence values at excitation wavelengths of 350-380 nm and emission wavelengths of 440-460 nm were measured using a microplate reader (Synergy Neo).

HDAC8 [2] = target: T1, HDAC8; test: Selective inhibitory effect, HDAC Fluorogenic assay kit, HDAC8; assay type: biochemical; conditions: versus HDAC1, 2, 3, 4, 6, 7, 9, 10, 11; 10 μM
Method: (§3) For analysis, HDAC substrate 3 was diluted in buffer to a concentration of 200 μM and used in HDAC 1, 2, 3, 6, and 10 assays, HDAC substrate 2A was diluted in buffer to a concentration of 200 μM and used in HDAC 4, 7, 9, and 11 assays, HDAC substrate 2A was diluted in buffer to a concentration of 20 μM and used in HDAC 8 assays. For the HDAC 11 assay, a dedicated buffer included in the kit was used separately, and the same buffer was used for the remaining assays. The compound of the Example was diluted to 1 mM (1% DMSO concentration) using DMSO to obtain a final concentration of 10 μM, and prepared by diluting 1/10 with assay buffer. In a 96-well black round-bottom plate, 5 μL of the diluted compound of the Example, 5 μL of the diluted HDAC substrate, 5 μL of BSA (1 mg/ml), 5 μL of the HDAC enzyme diluted to the appropriate concentration, and 30 μL of assay buffer were added, and the enzyme reaction was performed at 37° C. for 30 minutes. […] Afterwards, 50 μL of 2×HDAC developer was added to each well. After reacting for 15 minutes at room temperature, the fluorescence values at excitation wavelengths of 350-380 nm and emission wavelengths of 440-460 nm were measured using a microplate reader (Synergy Neo).

Liver cancer cells Huh-7 = test: Liver cancer cell growth inhibition, CellTiter-Glo Luminescent Cell Viability Assay; assay type: cell-based; conditions: various concentrations; day 1; FIG. 6
Method: In addition, an analysis of liver cancer growth inhibitory activity was performed. Liver cancer cells Huh-7 cells were dispensed in a 96-well plate at 1×10^4 cells/ml, and after 20 hours, PCI34051, Example 27, and Example 35 were added at various concentrations, and cultured for 24 and 48 hours at 37° C. in a 5% CO2 atmosphere. After culturing, 100 l CellTiter-Glo Luminescent Cell Viability Assay reagent was added and the luminescence signal was measured after 0.5-1 hour. The luminescence signal was measured using IVIS [PerkinElmer, (Waltham, USA)].

PC-3 cell lines = test: Prostate cancer model, PC-3 cell lines subcutaneously transplanted into nude mice; assay type: in vivo; conditions: 50 mg/kg orally once a day
Method: (§1) A prostate cancer model was established by subcutaneously transplanting PC-3 cell lines into nude mice, and the mice were divided into two groups (group 1: vehicle administration group (10% DSMO, 30% PEG400, 60% DW), group 2: 50 mg/kg Example 27 compound administration group). The drug was administered orally once a day for 12 times. To evaluate the therapeutic efficacy, tumors were […] before drug administration and on days 3, 6, 8, 10, 12, and 14 after drug administration, and tumor volumes were measured. Tumor volume (mm^3) was calculated as follows (tumor volume (mm^3)=(A×B^2)/2, where A=tumor long axis, B=tumor short axis), and the results are shown in FIG. 2.
Meanwhile, on day 12 of drug administration, the tumor was removed and its weight was measured, the results are shown in FIG. 3, and a photograph of the removed tumor was taken and shown in FIG. 4.

Huh-7 cell lines = test: Liver cancer model, Huh-7 cell lines subcutaneously transplanted into nude mice; assay type: in vivo; conditions: 50 mg/kg once a day
Method: (§2) In addition, a liver cancer model was established by subcutaneously transplanting Huh-7 cell lines into nude mice. After establishing the liver cancer model, the mice were divided into two groups (group 1: vehicle administration group, group 2: 50 mg/kg Example 27 compound administration group). The drug was administered once a day for 12 times. To evaluate therapeutic efficacy, tumor volume was measured before drug administration and on days 4, 7, 10, 13, and 15 after drug administration. Tumor volume (mm^3) was calculated as follows (tumor volume (mm^3)=(A×B^2)/2, where A=tumor long axis, B=tumor short axis). Body weight was measured before administration and on days 4, 7, 10, 13, and 15 after drug administration during the drug administration period. Tumor was excised on day 15 after drug treatment and body weight was measured.

[3] = Body weight of mice during drug administration, prostate cancer model; assay type: in vivo, nude mice; conditions: 50 mg/kg orally once a day; drug administration period; FIG. 5
Method: as §1

[4] = Body weight of mice during drug administration, liver cancer model; assay type: in vivo, nude mice; conditions: 50 mg/kg once a day; drug administration period; FIG. 7D
Method: as §2

HDAC1 = HDAC1 (Homo sapiens, UniProt Q13547); test: Selective inhibitory effect, HDAC Fluorogenic assay kit, HDAC1; conditions: read-out: HDAC1 enzyme activity (%)
Method: as §3

HDAC2 = HDAC2 (Homo sapiens, UniProt Q92769); test: Selective inhibitory effect, HDAC Fluorogenic assay kit, HDAC2; conditions: read-out: HDAC2 enzyme activity (%)
Method: as §3

HDAC10 = target: T2, HDAC10 (Homo sapiens, UniProt Q969S8); test: Selective inhibitory effect, HDAC Fluorogenic assay kit, HDAC10; conditions: read-out: HDAC10 enzyme activity (%)
T2 sequence (Q969S8 1-669): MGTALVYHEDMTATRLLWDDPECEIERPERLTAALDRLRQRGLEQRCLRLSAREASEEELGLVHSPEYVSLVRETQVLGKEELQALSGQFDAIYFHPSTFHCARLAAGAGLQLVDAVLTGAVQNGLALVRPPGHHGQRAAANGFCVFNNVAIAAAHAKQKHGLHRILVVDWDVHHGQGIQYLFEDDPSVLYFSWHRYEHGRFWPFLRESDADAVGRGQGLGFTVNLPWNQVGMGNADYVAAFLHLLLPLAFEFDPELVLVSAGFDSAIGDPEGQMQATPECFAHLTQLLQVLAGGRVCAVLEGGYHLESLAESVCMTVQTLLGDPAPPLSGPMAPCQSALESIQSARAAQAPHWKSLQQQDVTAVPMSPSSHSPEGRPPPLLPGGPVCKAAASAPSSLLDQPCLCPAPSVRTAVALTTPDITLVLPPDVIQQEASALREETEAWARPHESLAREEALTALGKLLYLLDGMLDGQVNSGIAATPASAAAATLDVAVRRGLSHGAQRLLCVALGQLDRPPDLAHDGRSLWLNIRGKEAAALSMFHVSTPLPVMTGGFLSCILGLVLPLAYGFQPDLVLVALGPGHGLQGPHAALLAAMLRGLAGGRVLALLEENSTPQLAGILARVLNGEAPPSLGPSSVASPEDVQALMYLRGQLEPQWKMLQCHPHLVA
Method: as §3

HDAC1, sequence (Q13547 whole entry): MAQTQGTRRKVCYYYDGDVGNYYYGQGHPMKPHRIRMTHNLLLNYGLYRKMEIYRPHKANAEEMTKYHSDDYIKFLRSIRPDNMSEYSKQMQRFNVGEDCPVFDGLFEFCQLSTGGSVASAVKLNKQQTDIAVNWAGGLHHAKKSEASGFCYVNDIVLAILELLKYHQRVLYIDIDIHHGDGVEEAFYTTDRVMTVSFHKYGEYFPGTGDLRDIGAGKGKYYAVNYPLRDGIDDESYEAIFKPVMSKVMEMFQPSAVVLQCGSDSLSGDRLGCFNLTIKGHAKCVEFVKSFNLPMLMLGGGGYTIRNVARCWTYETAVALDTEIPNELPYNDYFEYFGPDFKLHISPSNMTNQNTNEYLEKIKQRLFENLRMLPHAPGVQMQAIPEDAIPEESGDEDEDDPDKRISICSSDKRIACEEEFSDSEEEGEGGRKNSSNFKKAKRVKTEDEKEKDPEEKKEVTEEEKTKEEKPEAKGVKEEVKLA
HDAC2, sequence (Q92769 whole entry): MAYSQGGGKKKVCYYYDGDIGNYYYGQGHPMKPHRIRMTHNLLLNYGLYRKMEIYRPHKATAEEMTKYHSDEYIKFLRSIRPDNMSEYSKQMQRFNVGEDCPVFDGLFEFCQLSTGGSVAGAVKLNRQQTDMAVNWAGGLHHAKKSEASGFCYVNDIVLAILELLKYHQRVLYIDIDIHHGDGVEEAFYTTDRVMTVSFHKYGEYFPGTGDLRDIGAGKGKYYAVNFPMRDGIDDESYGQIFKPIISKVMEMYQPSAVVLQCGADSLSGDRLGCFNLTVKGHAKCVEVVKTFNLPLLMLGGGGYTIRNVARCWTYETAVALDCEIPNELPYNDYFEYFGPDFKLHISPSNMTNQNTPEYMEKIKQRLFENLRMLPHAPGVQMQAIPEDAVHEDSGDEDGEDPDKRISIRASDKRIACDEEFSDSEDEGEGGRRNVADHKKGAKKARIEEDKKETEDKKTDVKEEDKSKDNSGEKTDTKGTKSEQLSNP

remaining activity at 10 µM (HDAC1): 76.2%
remaining activity at 10 µM (HDAC2): 91.2%
remaining activity at 10 µM (HDAC10): 87.2%
Compound: Cc1cc2nc(C(=O)NCCc3c[nH]c4ccc(O)cc34)c(=O)n(C[C@H](O)[C@H](O)[C@H](O)CO)c2cc1C [Example 27, N-(2-(5-hydroxy-1H-indol-3-yl)ethyl)-6,7-dimethyl-3-oxo-4-((2S,3S,4R)-2,3,4,5-tetrahydroxypentyl)-3,4-dihydroquinoxaline-2-carboxamide]
inhibitory activity against HDAC8 (in words) (HDAC8 [1]): inhibitory activity similar to TSA or SAHA
selective inhibitory effect on HDAC8 (in words) (HDAC8 [2]): selective and excellent inhibitory activity only against HDAC8
Huh-7 cell viability (in words) (Liver cancer cells Huh-7): concentration-dependent inhibition of cancer cell viability
tumor volume (in words) (PC-3 cell lines; 12 times, up to day 14, p<0.05 vs vehicle, FIG. 2): significantly reduced tumor volume growth rate compared to group 1
tumor weight (in words) (PC-3 cell lines; tumor removed on day 12, p<0.0005 vs vehicle, FIG. 3): vehicle administration group (group 1) had a significantly higher tumor weight than the Example 27 compound administration group
tumor volume (in words) (Huh-7 cell lines; 12 times, up to day 15, p<0.005 vs vehicle, FIG. 7A): tumor growth inhibitory effect
tumor weight (in words) (Huh-7 cell lines; tumor removed on day 15, p<0.0005 vs vehicle, FIGS. 7B and 7C): tumor weight of the vehicle group was significantly higher than that of the Example 27 compound administration group
body weight of the mice (in words) [3]: no rapid weight loss was confirmed
body weight (in words) [4]: No rapid weight loss was observed
